Data published in ChEMBL document CHEMBL2321833, “Design and optimization of selective protein kinase C θ (PKCθ) inhibitors for the treatment of autoimmune diseases” (J Med Chem, 2013).

Key:
[1] = biological target: Protein kinase C alpha type (Homo sapiens, UniProt P17252); test: Inhibition of PKC alpha (unknown origin) using RRRRRKGSFKRKA as substrate after 15 mins by spectrophotometry in presence of ATP
[2] = biological target: Protein kinase C delta type (Homo sapiens, UniProt Q05655); test: Inhibition of PKC delta (unknown origin) using ERMRPRKRQGSVRRRV as substrate after 15 mins by spectrophotometry in presence of ATP
Chain of Protein kinase C delta type (Q05655 whole entry): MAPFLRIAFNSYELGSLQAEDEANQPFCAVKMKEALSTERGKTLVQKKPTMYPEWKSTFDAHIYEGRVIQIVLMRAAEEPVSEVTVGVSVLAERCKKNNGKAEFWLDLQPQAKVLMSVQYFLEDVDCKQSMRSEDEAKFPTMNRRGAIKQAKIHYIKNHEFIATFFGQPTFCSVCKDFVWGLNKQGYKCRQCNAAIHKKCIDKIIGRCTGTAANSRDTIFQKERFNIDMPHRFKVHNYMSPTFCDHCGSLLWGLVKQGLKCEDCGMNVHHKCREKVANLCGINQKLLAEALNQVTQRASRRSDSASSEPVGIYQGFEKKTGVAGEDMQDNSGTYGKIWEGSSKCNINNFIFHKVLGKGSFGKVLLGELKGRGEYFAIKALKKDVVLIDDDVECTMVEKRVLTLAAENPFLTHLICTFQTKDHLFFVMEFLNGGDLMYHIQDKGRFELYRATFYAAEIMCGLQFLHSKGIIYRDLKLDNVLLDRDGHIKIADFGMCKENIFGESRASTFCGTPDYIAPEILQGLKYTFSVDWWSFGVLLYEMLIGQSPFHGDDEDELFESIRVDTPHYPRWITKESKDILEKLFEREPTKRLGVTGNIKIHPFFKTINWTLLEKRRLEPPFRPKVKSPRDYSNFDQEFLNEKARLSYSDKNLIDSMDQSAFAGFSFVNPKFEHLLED

[3] = biological target: T1, Protein kinase C theta type (Homo sapiens, UniProt Q04759); test: Inhibition of full-length recombinant PKC theta (unknown origin) using ERMRPRKRQGSVRRRV as substrate after 60 mins by scintillation counting analysis in presence of [gamma-33P]ATP
T1 sequence (Q04759 whole entry): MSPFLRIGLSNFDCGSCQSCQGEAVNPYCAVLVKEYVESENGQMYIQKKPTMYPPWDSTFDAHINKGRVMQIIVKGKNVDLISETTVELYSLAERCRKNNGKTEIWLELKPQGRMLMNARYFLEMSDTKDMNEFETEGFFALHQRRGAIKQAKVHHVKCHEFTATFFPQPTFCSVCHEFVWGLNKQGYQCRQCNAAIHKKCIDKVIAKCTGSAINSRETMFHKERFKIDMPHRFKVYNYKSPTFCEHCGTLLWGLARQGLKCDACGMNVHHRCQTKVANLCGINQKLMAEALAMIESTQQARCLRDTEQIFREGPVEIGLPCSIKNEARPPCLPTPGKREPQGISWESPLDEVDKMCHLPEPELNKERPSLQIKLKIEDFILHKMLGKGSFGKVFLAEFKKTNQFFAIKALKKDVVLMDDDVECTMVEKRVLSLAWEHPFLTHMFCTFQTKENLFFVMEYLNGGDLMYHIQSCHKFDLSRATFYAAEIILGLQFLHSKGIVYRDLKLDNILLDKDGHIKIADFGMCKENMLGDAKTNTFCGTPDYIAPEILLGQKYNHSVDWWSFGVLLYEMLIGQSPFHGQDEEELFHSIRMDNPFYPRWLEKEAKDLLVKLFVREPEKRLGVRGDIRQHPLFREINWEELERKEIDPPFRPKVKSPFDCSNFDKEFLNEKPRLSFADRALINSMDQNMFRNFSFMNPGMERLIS

[4] = biological target: T1, Protein kinase C theta type; test: Inhibition of PKC-theta in human PBMC cells assessed as inhibition of IL-2 after 24 hrs by bead-based FLISA assay; format: cell-based
[5] = Clearance in rat at 3 mg/kg, iv and 10 mg/kg, po; format: ADME, organism-based; conditions: in vivo
[6] = Half life in rat at 3 mg/kg, iv and 10 mg/kg, po; format: ADME, organism-based; conditions: in vivo
[7] = system: Blood; test: Inhibition of PKC theta in human whole blood assessed as IL-2 level after 1 hr by ELISA; format: functional, tissue-based
[8] = Oral bioavailability in rat at 10 mg/kg; format: ADME, organism-based; conditions: in vivo

Row | Structure (SMILES) | Ki [1] [nM] | Ki [2] [nM] | Ki [3] [nM] | other results
1 | c1cc(-c2n[nH]c3ncccc23)nc(N2CCNCC2)c1 | 1230 |  |  | 
2 | Nc1ncccc1C(=O)c1cccc(N2CCCNCC2)n1 | 428 |  |  | 
3 | CC(C)[C@@](C)(O)[C@@H]1CN(c2nc(-c3n[nH]c4ncccc34)c(F)cc2O)CCN1 | 56 | < 10 | 0.1 | IC50 [4]: 4 nM
4 | CC(C)[C@@](C)(O)[C@@H]1CN(c2nc(-c3n[nH]c4ncccc34)c(F)cc2F)CCN1 | 198 | 18 | 0.1 | clearance [5]: 9.5 mL/min/kg; half-life [6]: 1.7 h; IC50 [4]: 2 nM; IC50 [7]: 80 nM; bioavailability [8]: 30%
5 | CC(C)[C@@](C)(O)[C@@H]1CN(c2nc(-c3n[nH]c4ncccc34)c(F)cc2C#N)CCN1 | > 1250 |  |  | 
6 | Fc1ccc(N2CCNCC2)nc1-c1n[nH]c2ncccc12 | > 1250 | 722 | 60 | 

Second part, led by results:

Row | Ki [1] [nM] | Ki [2] [nM] | Ki [3] [nM] | Structure (SMILES) | other results
7 |  | 120 |  | CC(C)[C@](C)(O)[C@@H]1CN(c2ccc(F)c(-c3n[nH]c4ncccc34)n2)CCN1 | 
8 |  | > 1250 |  | CC(C)[C@](C)(O)[C@H]1CN(c2ccc(F)c(-c3n[nH]c4ncccc34)n2)CCN1 | 
9 |  | > 1250 |  | CC(C)[C@@](C)(O)[C@H]1CN(c2ccc(F)c(-c3n[nH]c4ncccc34)n2)CCN1 | 
